From patent US7435733B2, “Mineralocorticoid receptor modulator compounds and methods, and pharmaceutical compositions containing these compounds” (Ligand Pharmaceuticals, Inc., priority 2004, dated 2008)

Biological target: T1, human mineralocorticoid receptor protein (MR) (Homo sapiens, UniProt P08235)
T1 construct: made in house; host or cells: Spodoptera frugiperda Sf21 insect cells (baculovirus)
T1 sequence (P08235 1-984): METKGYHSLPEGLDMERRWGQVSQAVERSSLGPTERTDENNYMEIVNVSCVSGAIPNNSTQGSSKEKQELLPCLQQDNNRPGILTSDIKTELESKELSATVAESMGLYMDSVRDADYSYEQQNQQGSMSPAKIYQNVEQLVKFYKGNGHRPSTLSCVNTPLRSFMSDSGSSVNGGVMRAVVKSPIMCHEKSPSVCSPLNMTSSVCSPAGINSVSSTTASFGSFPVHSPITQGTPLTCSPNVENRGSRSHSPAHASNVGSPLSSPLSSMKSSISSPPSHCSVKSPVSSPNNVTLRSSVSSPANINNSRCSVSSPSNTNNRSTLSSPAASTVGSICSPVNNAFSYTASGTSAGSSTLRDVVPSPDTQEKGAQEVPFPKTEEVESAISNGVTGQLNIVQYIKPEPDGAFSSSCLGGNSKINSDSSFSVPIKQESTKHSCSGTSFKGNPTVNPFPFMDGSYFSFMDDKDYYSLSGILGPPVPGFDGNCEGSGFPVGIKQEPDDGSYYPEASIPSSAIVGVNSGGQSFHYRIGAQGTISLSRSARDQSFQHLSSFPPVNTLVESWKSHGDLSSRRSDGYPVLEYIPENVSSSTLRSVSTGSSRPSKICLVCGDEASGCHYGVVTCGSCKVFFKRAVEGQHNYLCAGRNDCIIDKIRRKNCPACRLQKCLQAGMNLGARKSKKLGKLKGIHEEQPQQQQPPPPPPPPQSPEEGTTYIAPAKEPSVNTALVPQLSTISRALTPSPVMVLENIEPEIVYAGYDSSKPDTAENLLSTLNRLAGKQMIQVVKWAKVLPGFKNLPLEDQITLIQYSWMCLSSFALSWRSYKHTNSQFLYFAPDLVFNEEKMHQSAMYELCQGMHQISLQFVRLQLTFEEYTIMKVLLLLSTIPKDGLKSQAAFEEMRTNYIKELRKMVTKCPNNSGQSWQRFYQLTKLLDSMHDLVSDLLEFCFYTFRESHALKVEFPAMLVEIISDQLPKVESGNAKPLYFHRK
Assay: Mineralocorticoid receptor binding assay ([3H]aldosterone displacement, MR lysate)
Conditions: baculovirus-expressed MR lysate from Sf21 cells; 2-4 nM [3H]aldosterone; 16 hours at 4° C.; Cheng-Prusoff from IC50
Description: A baculovirus expression plasmid comprising cDNA encoding the human mineralocorticoid receptor protein (MR) was prepared using standard techniques. See e.g. E. A. Allegretto et. al. 268 J. Biol. Chem., 26625 (1993); G. Srinivasan and B. Thompson, 4 Mol. Endo., 209 (1990); and D. R. O'Reilly et. al., in “Baculovirus Expression Vectors”, D. R. O'Reilly et. al., eds., W.H. Freeman, New York, N.Y., pp. 139-179 (1992). That expression plasmid was co-transfected together with wild type Autographa californica multiple nuclear polyhedrosis virus DNA into Spodopter frugiperda-21 (Sf-21) cells to generate recombinant virus comprising MR cDNA. See e.g. O'Reilly, D. R., Miller, L. K., Luckow, V. A., Regulation of expression of a baculovirus ecdysteroid UDP glucosyltransferase gene. “Baculovirus Expression Vectors.” WH Freeman, N.Y., 139-179 (1992). […]
After incubation, 200 μl of 6.25% hydroxylapatite in assay buffer was added to each assay sample to precipitate the protein. […] Radioactivity in counts per minute (CPM) of each washed pellet was determined by liquid scintillation counter (MicroBeta™, Wallach).
Specific binding for a particular sample was calculated using the equation: (Sample CPM)−(Average Non-specific CPM) Average Non-specific CPM was defined as the amount of radioactivity from samples comprising an excess (i.e. 1000 nM) of unlabeled aldosterone. […]

With `O=C1Nc2ccc(-c3cccc(C(F)(F)F)c3)c3c2C(CCC3)O1` (racemic) [Compound 101, (±)-7,8,9,9a-Tetrahydro-6-[(3-trifluoromethyl)phenyl]-3H-naphtho[1,8-de][1,3]oxazin-2-one] the Ki was 335 nM.
In the case of `N#Cc1cccc(-c2ccc3c4c2CCCC4OC(=O)N3)c1` (racemic) [Compound 102, (±)-7,8,9,9a-Tetrahydro-6-(3-cyanophenyl)-3H-naphtho[1,8-de][1,3]oxazin-2-one], the Ki is reported as 650 nM.
